{
  "source": "patent US9428455B2",
  "about": "“Process for annealing amorphous atorvastatin” (Pfizer Inc., priority 2005, dated 2016)",
  "type": "physicochemical",
  "method": "The amorphous atorvastatin calcium was loaded into 20 ml glass vials (approximately 1 g per vial), and heated at 100±5° C. for 1, 6, and 18 hours in an oven. After heating, the powder was transferred from the vials to 15 ml amber screw-cap bottles, and set-up on stability at 50° C./20% RH. In addition, unannealed amorphous atorvastatin calcium, which was loaded in 15 ml amber screw-cap bottles, was placed on stability as a control.\nThe annealed amorphous atorvastatin calcium was analyzed for impurities and atorvastatin degradation products using HPLC, by evaluating the ratio of peak integration compared to the total integrated peak areas. […] The material was analyzed by HPLC (Zorbax SB C8 column, 25.0 cm×4.6 mm, HPLC: Hewlett Packard 1100 series, 20 μl injection volume, flow of 1.5 mL/min). […]\nStability data obtained for three annealed samples and the control sample are graphically illustrated in FIGS. 1 to 4. […] In order to express stabilization by annealing in a more quantitative term, relative degradation rate constants, krel, were determined from the data presented in FIGS. 1 to 4. The krel were calculated using Eq. 1: krel=(k/k0)*100% Eq. 1 where k is the zero order rate constant for annealed samples, and k0 is the zero order rate constant for the control sample; k and k0 were determined from the data presented in FIGS. 1 to 4.",
  "note": "Where a name gives a salt, the structure may show the parent alone.",
  "data": [
    {"smiles": "CC(C)c1c(C(=O)Nc2ccccc2)c(-c2ccccc2)c(-c2ccc(F)cc2)n1CC[C@@H](O)C[C@@H](O)CC(=O)O", "note": "(relative stereo) [amorphous atorvastatin calcium, [R—(R*,R*)]-2-(4-fluorophenyl)-β,δ-dihydroxy-5-(1-methylethyl)-3-phenyl-4-[(phenylamino)carbonyl]-1H-pyrrole-1-heptanoic acid calcium salt (2:1) trihydrate]", "values": [
      {"measurement": "Relative degradation rate for total degradation products, less than in the control", "value": 34, "unit": "%"}
    ]}
  ]
}
